In US20230064189A1, “1H-PYRAZOLO[3,4-D]PYRIMIDINE COMPOUNDS USEFUL FOR THE TREATMENT OF PLATINUM-RESISTANT CANCER” (IMPERIAL COLLEGE INNOVATIONS LIMITED, priority 2019, published 2023):
Where “and” joins values, the source holds several entries; their conditions need not be identical. Equal entries are not always repeated.

Experiments:
AKT1 = AKT1 (Homo sapiens, UniProt P31749); assay: AKT1 enzymatic inhibition assay (HTRF KinEASE); format: biochemical; conditions: read-out: AKT1 pIC50 (converted)
Method: (§1) The IC50 values of Example compounds of the invention for AKT1, AKT2 and AKT3 were measured using HTRF (Homogeneous Time Resolved Fluorescence) KinEASE assays (62ST3PEB—1000 tests or 62ST3PEC—20,000 tests) from cisbio.com, according to manufacturer's instructions.

AKT2 = AKT2 (Homo sapiens, UniProt P31751); assay: AKT2 enzymatic inhibition assay (HTRF KinEASE); format: biochemical; conditions: read-out: AKT2 pIC50 (converted)
Method: as §1

AKT3 = AKT3 (Homo sapiens, UniProt Q9Y243); assay: AKT3 enzymatic inhibition assay (HTRF KinEASE); format: biochemical; conditions: read-out: AKT3 pIC50 (converted)
Method: as §1

DNA-PK = DNA-PK (Homo sapiens, UniProt P78527); assay: DNA-PK enzymatic inhibition assay (HTRF KinEASE); format: biochemical; conditions: read-out: DNA-PK pIC50 (converted)
Method: The IC50 values of Example compounds of the invention for DNA-PK were measured using the HTRF KinEASE assay as described above.

PEO4 cells = assay: Relative re-sensitisation ratio of apoptosis induction (caspase 3/7 normalised to MTT) with cisplatin; format: cell-based; conditions: compound at 20 μM, triciribine at 25 μM, cisplatin 25 μM, 24 h
Method: Cell viability was determined for different assays (as described in FIGS. 1 and 2, Table 5) in optically clear 96 well plates using the standard 3-(4, 5-dimethylthiazol-2-yl)-2, 5-diphenyl tetrazolium bromide (MTT) assay, which is a colorimetric method for determining the number of metabolically active cells in cytotoxicity assays. MTT is bioreduced by mitochondrial dehydrogenase enzymes into a coloured solid formazan product. MTT reagent (Sigma, UK) was initially prepared by dissolving in PBS at a concentration of 3 mg/ml. Following relevant drug treatments at different time points and cell lines (described in results section and FIGS. 1 and 2), MTT reagent was added to each experimental well at a final concentration of 0.5 mg/ml. After incubation for 3 h at 37° C. 5% CO2, an equal volume of stop solution (10% SDS in 0.01% HCl) was added and formed formazan crystals were allowed to dissolve shaking overnight. The following day, the optical density was read at 570 nm and analysis performed as per each assay type.
The caspase 3/7 activity of cells following treatment with inhibitor compounds or vehicle (DMSO) was determined using the Caspase-Glo® 3/7 Assay (Catalogue number G8093, Promega, US) according to manufacturer's instructions. Briefly, 10,000 cells per well for PEO1 and PEO4 cell lines or 5000 cells per well for SKOV3 cell line were grown in 96 well plates in a final volume of 50 μl and following relevant drug treatment of cells (example compound±cisplatin, comparative example compound±cisplatin, or vehicle±cisplatin) for 24 hours, an equal volume of Caspase-Glo® Reagent containing a luminogenic substrate for Caspase 3 and Caspase 7 was added i.e. if cells cultured in 50 μl of media, 50 μl of caspase reagent was added. After 1 h incubation at room temperature in the dark, the luminescence of each sample was measured in a plate-reading luminometer (LUMIstar OPTIMA, BMG Labtech, Germany). Caspase 3/7 activity data was normalised to corresponding viability data from MTT and analysis was performed according to each experimental set-up.
. Apoptosis (caspase 3/7) and viability (MTT) assays were carried out as described for each assay protocols and the phenotypic apoptosis assays above. Relative apoptosis induction was inferred from caspase 3/7 assay values normalised to the standard MTT viability assay values of each corresponding well. […]

Chain of AKT3 (Q9Y243 148-405 limits assumed): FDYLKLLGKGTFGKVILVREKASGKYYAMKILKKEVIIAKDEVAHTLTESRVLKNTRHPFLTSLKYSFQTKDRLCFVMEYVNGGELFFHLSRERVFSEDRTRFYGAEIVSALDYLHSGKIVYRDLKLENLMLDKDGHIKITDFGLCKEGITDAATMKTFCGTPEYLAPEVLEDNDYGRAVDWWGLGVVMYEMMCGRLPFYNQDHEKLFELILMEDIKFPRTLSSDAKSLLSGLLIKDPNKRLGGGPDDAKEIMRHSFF
Chain of AKT1 (P31749 150-408 limits assumed): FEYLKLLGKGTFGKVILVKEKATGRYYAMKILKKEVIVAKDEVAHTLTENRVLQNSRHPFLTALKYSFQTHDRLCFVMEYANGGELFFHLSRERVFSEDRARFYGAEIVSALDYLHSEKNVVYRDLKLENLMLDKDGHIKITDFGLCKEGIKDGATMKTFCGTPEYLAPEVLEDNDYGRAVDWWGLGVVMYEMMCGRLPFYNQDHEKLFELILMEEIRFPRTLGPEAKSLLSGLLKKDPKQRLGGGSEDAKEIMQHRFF
Chain of AKT2 (P31751 152-409 limits assumed): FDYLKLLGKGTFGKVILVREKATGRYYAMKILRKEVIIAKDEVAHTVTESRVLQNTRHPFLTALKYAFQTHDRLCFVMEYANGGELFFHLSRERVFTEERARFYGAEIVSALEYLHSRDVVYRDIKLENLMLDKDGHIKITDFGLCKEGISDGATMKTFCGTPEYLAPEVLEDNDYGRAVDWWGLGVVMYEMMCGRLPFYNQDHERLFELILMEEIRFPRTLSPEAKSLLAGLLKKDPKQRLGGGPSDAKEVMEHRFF

SMILES | IC50 (AKT1) | IC50 (AKT2) [nM] | IC50 (AKT3) [nM] | IC50 (DNA-PK) | Relative re-sensitisation ratio of apoptosis induction (caspase 3/7) relative to triciribine phosphate (PEO4 cells)
CN(C)CCNC(=O)C(c1ccc(Cl)cc1)N1CCN(c2ncnc3[nH]nc(Br)c23)CC1 (single isomer, unassigned; (+)) [Example 3b, (+)-2-(4-(3-bromo-1H-pyrazolo[3,4-d]pyrimidin-4-yl)piperazin-1-yl)-2-(4-chlorophenyl)-N-(2-(dimethylamino)ethyl)acetamide] | 15.1 nM | 34.7 | 5.25 | 10.5 nM | 1.4
CN(C)CCNC(=O)C(c1ccc(Cl)cc1)N1CCN(c2ncnc3[nH]nc(Br)c23)CC1 (single isomer, unassigned; (-)) [Example 3a, (−)-2-(4-(3-bromo-1H-pyrazolo[3,4-d]pyrimidin-4-yl)piperazin-1-yl)-2-(4-chlorophenyl)-N-(2-(dimethylamino)ethyl)acetamide] | 4.47 nM and 1.58 nM |  |  | 4.9 nM and 10.7 nM | 2.7
CN(C)CCNC(=O)C(c1ccc(Cl)cc1)N1CCN(c2ncnc3[nH]nc(Br)c23)CC1 (stereo not shown) [Example 3, 2-(4-(3-bromo-1H-pyrazolo[3,4-d]pyrimidin-4-yl)piperazin-1-yl)-2-(4-chlorophenyl)-N-(2-(dimethylamino)ethyl)acetamide] |  |  |  |  | 1.7
CN(C)C(=O)C(c1ccc(Cl)cc1)N1CCN(c2ncnc3[nH]nc(Br)c23)CC1 (stereo not shown) [Example 4, 2-(4-(3-bromo-1H-pyrazolo[3,4-d]pyrimidin-4-yl)piperazin-1-yl)-2-(4-chlorophenyl)-N,N-dimethylacetamide] | 1350 nM | 2240 | 603 | 141 nM | 2.6
Cc1n[nH]c2ncnc(N3CCC(C(OCCN(C)C)c4ccc(Cl)cc4)CC3)c12 (stereo not shown) [Example 5, 2-((4-chlorophenyl)(1-(3-methyl-1H-pyrazolo[3,4-d]pyrimidin-4-yl)piperidin-4-yl)methoxy)-N,N-dimethylethan-1-amine] | 12.6 nM | 27.5 | 7.24 | 7.08 nM | 2.5
CCN(CC)CCS(=O)(=O)N(c1ccc(Cl)cc1)C1CCN(c2ncnc3[nH]nc(Br)c23)CC1 [Example 6, N-(1-(3-bromo-1H-pyrazolo[3,4-d]pyrimidin-4-yl)piperidin-4-yl)-N-(4-chlorophenyl)-2-(diethylamino)ethane-1-sulfonamide] | 1.32 nM | 7.41 | 0.851 | 6.17 nM | 2.3
CN(C)CCCOC(c1ccc(Cl)cc1)C1CCN(c2ncnc3[nH]nc(Br)c23)CC1 (stereo not shown) [Example 10, 3-((1-(3-bromo-1H-pyrazolo[3,4-d]pyrimidin-4-yl)piperidin-4-yl)(4-chlorophenyl)methoxy)-N,N-dimethylpropan-1-amine] |  |  |  |  | 1.5
CN1N=C(N)c2cn([C@@H]3O[C@H](COP(=O)(O)O)[C@@H](O)[C@H]3O)c3ncnc1c23 [Triciribine phosphate, ((2R,3S,4R,5R)-5-(3-amino-5-methyl-1,4,5,6,8-pentaazaacenaphthylen-1(5H)-yl)-3,4-dihydroxytetrahydrofuran-2-yl)methyl dihydrogen phosphate, reference compound] |  |  |  |  | 1.0

The next lines start with results.

IC50 (AKT1) | IC50 (AKT2) [nM] | IC50 (AKT3) [nM] | IC50 (DNA-PK) | SMILES | Relative re-sensitisation ratio of apoptosis induction (caspase 3/7) relative to triciribine phosphate (PEO4 cells)
0.912 nM | 3.63 | 1.38 | 2.75 nM | CN(C)CC(c1ccc(Cl)cc1)C1CCN(c2ncnc3[nH]nc(Br)c23)CC1 (stereo not shown) [Example 7, 2-(1-(3-bromo-1H-pyrazolo[3,4-d]pyrimidin-4-yl)piperidin-4-yl)-2-(4-chlorophenyl)-N,N-dimethylethan-1-amine] | 2.3
2.57 nM | 6.03 | 0.955 | 3.47 nM | CN(C)CCCC(O)(c1ccc(Cl)cc1)C1CCN(c2ncnc3[nH]nc(Br)c23)CC1 (stereo not shown) [Example 8, 1-(1-(3-bromo-1H-pyrazolo[3,4-d]pyrimidin-4-yl)piperidin-4-yl)-1-(4-chlorophenyl)-4-(dimethylamino)butan-1-ol] | 1.73
1.2 nM | 2.75 | 0.676 | 1.95 nM | CN(C)CCNC(c1ccc(Cl)cc1)C1CCN(c2ncnc3[nH]nc(Br)c23)CC1 (stereo not shown) [Example 9, N^1-((1-(3-bromo-1H-pyrazolo[3,4-d]pyrimidin-4-yl)piperidin-4-yl)(4-chlorophenyl)methyl)-N^2,N^2-dimethylethane-1,2-diamine] | 1.5
0.912 nM | 1.66 | 0.316 | 1.7 nM | CN(C)CC(c1ccc(Cl)cc1)C1CCN(c2ncnc3[nH]nc(C(F)(F)F)c23)CC1 (stereo not shown) [Example 11, 2-(4-chlorophenyl)-N,N-dimethyl-2-(1-(3-(trifluoromethyl)-1H-pyrazolo[3,4-d]pyrimidin-4-yl)piperidin-4-yl)ethan-1-amine] | 1.3
7.08 nM | 7.24 | 2.95 | 1.86 nM | CN(C)CC(c1ccc(Cl)cc1)N1CCN(c2ncnc3[nH]nc(C(F)(F)F)c23)CC1 (stereo not shown) [Example 13, 2-(4-chlorophenyl)-N,N-dimethyl-2-(4-(3-(trifluoromethyl)-1H-pyrazolo[3,4-d]pyrimidin-4-yl)piperazin-1-yl)ethanamine] | 1.2
2.51 nM | 6.46 | 1.29 | 4.68 nM | CN(C)CCCCC(O)(c1ccc(Cl)cc1)C1CCN(c2ncnc3[nH]nc(Br)c23)CC1 (stereo not shown) [Example 14, 1-(1-(3-bromo-1H-pyrazolo[3,4-d]pyrimidin-4-yl)piperidin-4-yl)-1-(4-chlorophenyl)-5-(dimethylamino)pentan-1-ol] | 1.2
933 nM | 490 | 158 | 12 nM | CN(C)CCCC(=C1CCN(c2ncnc3[nH]nc(C(F)(F)F)c23)CC1)c1ccc(Cl)cc1 [Example 15, 4-(4-chlorophenyl)-N,N-dimethyl-4-(1-(3-(trifluoromethyl)-1H-pyrazolo[3,4-d]pyrimidin-4-yl)piperidin-4-ylidene)butan-1-amine] | 1.1
 | 170 | 209 | 8.51 nM | COc1ccc(O)c(C(=O)c2ccc(C(=O)N[C@@H]3CCCNC[C@H]3NC(=O)c3ccncc3)cc2)c1F [Roche comp-4, N-{(3R,4R)-4-[4-(2-fluoro-6-hydroxy-3-methoxy-benzoyl)-benzoylamino]-azepan-3-yl}-isonicotinamide, reference compound] | 
